Data taken from ChEMBL document CHEMBL1201862, “PubChem BioAssay data set” (2004).
Active and inactive are the calls of the source.

Columns and labels:
[1] = toxicity to human HepG2 hepatoma cells – cell-based, plate reader, dry powder samples, cytotoxicity control, dose response (AID 1159569); format: functional;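 note: inhibitor potency with signal falling toward the positive control level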
[2] = growth inhibition of yeast DHODH-expressing 3D7 parasites – SYBR Green, dry powder samples, dose response (AID 1159570); format: functional, cell-based;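 note: parasite growth measured after 72 hours of compound exposure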
[3] = growth inhibition of PfATP4-mutant resistant parasites – NITD609-resistant line, SYBR Green, dry powder, dose response (AID 1159571); format: functional, cell-based;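 note: parasites synchronized at ring stage by sorbitol before testing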
[4] = Dd2 parasite growth inhibition in erythrocytes – SYBR Green, dry powder samples, set 9, dose response (AID 1159568); format: functional, cell-based
[5] = P. falciparum Dd2 growth inhibitors, dose response, SYBR Green, cherry-picked samples (AID 1159567); format: functional, cell-based
[6] = Dd2 malaria parasite growth inhibition potency – SYBR Green, dry powder samples, dose response (AID 1159566); format: functional, cell-based;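 note: potency for growth inhibition with lower SYBR green DNA signal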
[7] = Plasmodium falciparum Dd2 Sybr green parasite growth Measured in Cell-Based and Microorganism Combination System Using Plate Reader - 2153-01_Inhibitor_Dose_DryPowder_Activity_Set3.; format: functional
NADPH oxidase 1 = NADPH oxidase 1 (Homo sapiens, UniProt Q9Y5S8); assay: Late-stage luminescence-based cell-based dose response assay to identify inhibitors of NADPH oxidase 1 (NOX1): Synthesized analogs.; format: functional
[8] = IC50 of insulin release inhibition, rat insulinoma INS-1E line, 5 mM glucose, cell-based (AID 1117331); format: functional
[9] = molecular target: Peroxisome proliferator-activated receptor gamma/Nuclear receptor corepressor 2 (Homo sapiens, UniProt P37231+Q9Y618); assay: Counterscreen for NR2E3 inverse agonists: TR-FRET-based biochemical high throughput dose response assay to identify inverse agonists of the interaction between peroxisome proliferator-activated receptor gamma (PPARg) and nuclear receptor co-repressor 2 (NCOR2).; format: functional
[10] = molecular target: Photoreceptor-specific nuclear receptor (Homo sapiens, UniProt Q9Y5X4); assay: ligands suppressing NR2E3 nuclear receptor activity – biochemical, TR-FRET, dose response (AID 463256); format: functional
[11] = DRD fibroblast viability loss – cell-based, non-viral oncogenic, luminescence, dose response (AID 1934); format: functional; details: Homo sapiens
[12] = OVCAR-3 cell viability loss – plate reader, dry powder samples, PAX8 inhibitor project, dose response (AID 743044); format: functional, cell-based
BJ [13] = assay: cells; format: functional, cell-based; details: Homo sapiens
[14] = toxicity toward immortalized ovarian surface epithelium – cell-based, plate reader, dry powder samples, cytotoxicity control for PAX8 inhibitor project, dose response (AID 743045); format: functional
[15] = alpha-synuclein stem-loop luciferase translation blockers – H4 neuroglioma cells, luminescence, confirmation (AID 1988); format: functional, cell-based
[16] = Luminescence Cell-Based Dose Response HTS to Identify Inhibitors of 5'UTR Stem-Loop Driven Prion Protein mRNA Translation in H4 Neuroglioblastoma Cells. [Related pubchem assays: 1827 (Project Summary), 1813 (Primary HTS)]; format: functional
[17] = A2780 cell killing – plate reader, dry powder samples, cytotoxicity control, dose response (AID 743046); format: functional, cell-based
[18] = OV-90 cell viability loss – plate reader, dry powder, SA8, PAX8 inhibitor project, dose response (AID 743149); format: functional, cell-based
BJ [19] = assay: BJ-TERT-LT-ST fibroblast viability loss – cell-based, RAS-independent, luminescence, dose response (AID 1935); format: functional; details: Homo sapiens;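 note: BJ fibroblasts immortalized with TERT plus LT and ST oncogenes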
[20] = Luminescence-based dose response cell-based high throughput screening assay for cytotoxic compounds using the IEC-6 intestinal epithelial cell line. [Related pubchem assays: 1858 (Summary AID.), 1825 (Counterscreen.), 1907 (Confirmation screen.)]; format: functional
[21] = IGROV1 cell killing – plate reader, dry powder samples, PAX8 inhibitor project, dose response (AID 743043); format: functional, cell-based; details: IGROV-1
[22] = COV362 cell viability loss – plate reader, dry powder, SA12, cytotoxicity control for PAX8 inhibitor project, dose response (AID 743144); format: functional, cell-based
Paired box protein Pax-8 = Paired box protein Pax-8 (Homo sapiens, UniProt Q06710); assay: PAX8 transcriptional activity inhibition in RMG-I – RMG-I cells, luciferase, cherry-pick, dose response (AID 687027); format: functional, cell-based;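 note: luciferase reporter driven by Pax8 target thyroperoxidase promoter measured by SteadyGlo luminescence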
[23] = PAX5 cellular inhibition readout – cell-based, plate reader, dry powder samples, selectivity assay for PAX8 inhibitor project, dose response (AID 743047); format: functional;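 note: HEK293 cells carrying a Pax5 driven CD19 promoter luciferase reporter; potency of inhibitors that lower reporter luminescence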
[24] = PAX8-dependent cell viability loss – plate reader, dry powder, dose response (AID 743049); format: functional, cell-based
[25] = inhibitors acting on PAX2 in cells – cell-based, plate reader, dry powder samples, selectivity assay for PAX8 inhibitor project, dose response (AID 743048); format: functional;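 note: HEK293 cells carrying a WT1 promoter luciferase reporter driven by expressed Pax2; potency is for inhibition of Pax2 driven reporter signal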
BJ [26] = assay: growth inhibition of engineered Ras-driven BJ cells – cell-based, alamar blue fluorescence, cherrypicked samples, dose response (AID 2631); format: functional; details: Homo sapiens;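 note: confirmatory dose-response assay in RAS-dependent BJ fibroblasts engineered with TERT, LT and ST, with cytotoxicity read by fluorescence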
[27] = COV434 cell viability loss – plate reader, dry powder, SA7, cytotoxicity control for PAX8 inhibitor project, dose response (AID 743145); format: functional, cell-based
BJ [28] = assay: BJ-TERT fibroblast viability loss – cell-based, RAS-independent, luminescence, dose response (AID 1933); format: functional; details: Homo sapiens
[29] = luciferase reporter signal suppression in cells – H4 neuroglioma cells, luminescence, dose response (AID 1990); format: functional, cell-based
[30] = OVCAR4 cell viability loss – plate reader, dry powder, SA11, cytotoxicity control for PAX8 inhibitor project, dose response (AID 743150); format: functional, cell-based; details: OVCAR-4
[31] = reduced cellular PGC1a acetyl-lysine signal – cell-based, cherry-picked samples, dose response (AID 720514); format: functional;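 note: potency may reflect raised or lowered acetylation signal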
[32] = HEK-293T viability loss, compound-treated – cell-based, uHTS hits, cytotoxicity control for B/T-cell NF-kB inhibitor project, dose response (AID 489019); format: functional;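 note: IC50 reflects cytotoxicity as loss of cell viability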
[33] = microbe, parasite or virus in culture; format: functional; details: Mycobacterium tuberculosis
P388 = assay: cells; format: functional; details: Mus musculus
[34] = HepG2 cell cytotoxicity, dose response, cytotoxicity control for non-replicating M. tuberculosis project (AID 489018); format: functional; details: Mycobacterium tuberculosis
[35] = Vero E6 cell cytotoxicity, dose response, cytotoxicity control for non-replicating M. tuberculosis project, secondary assay (AID 492998); format: functional, VeroE6; details: Vero C1008
P388/ADR = assay: cells; format: functional; details: Mus musculus
SN12K1 = assay: cells; format: functional; details: Homo sapiens
Jurkat = assay: blockers of NF-kB activation in T cells – Jurkat, luciferase reporter, luminescence, B- and T-cell, dose response (AID 489004); format: functional, cell-based; details: Homo sapiens;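 note: NF-kB luciferase reporter Jurkat cells stimulated with PMA plus ionomycin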
[36] = molecular target: T1, Eukaryotic translation initiation factor 2-alpha kinase 3 (Homo sapiens, UniProt Q9NZJ5); assay: Dose response cell-based high-throughput screening assay to measure PERK inhibition. [Related pubchem assays: 1416 ]; format: functional
T1 sequence (Q9NZJ5 whole entry): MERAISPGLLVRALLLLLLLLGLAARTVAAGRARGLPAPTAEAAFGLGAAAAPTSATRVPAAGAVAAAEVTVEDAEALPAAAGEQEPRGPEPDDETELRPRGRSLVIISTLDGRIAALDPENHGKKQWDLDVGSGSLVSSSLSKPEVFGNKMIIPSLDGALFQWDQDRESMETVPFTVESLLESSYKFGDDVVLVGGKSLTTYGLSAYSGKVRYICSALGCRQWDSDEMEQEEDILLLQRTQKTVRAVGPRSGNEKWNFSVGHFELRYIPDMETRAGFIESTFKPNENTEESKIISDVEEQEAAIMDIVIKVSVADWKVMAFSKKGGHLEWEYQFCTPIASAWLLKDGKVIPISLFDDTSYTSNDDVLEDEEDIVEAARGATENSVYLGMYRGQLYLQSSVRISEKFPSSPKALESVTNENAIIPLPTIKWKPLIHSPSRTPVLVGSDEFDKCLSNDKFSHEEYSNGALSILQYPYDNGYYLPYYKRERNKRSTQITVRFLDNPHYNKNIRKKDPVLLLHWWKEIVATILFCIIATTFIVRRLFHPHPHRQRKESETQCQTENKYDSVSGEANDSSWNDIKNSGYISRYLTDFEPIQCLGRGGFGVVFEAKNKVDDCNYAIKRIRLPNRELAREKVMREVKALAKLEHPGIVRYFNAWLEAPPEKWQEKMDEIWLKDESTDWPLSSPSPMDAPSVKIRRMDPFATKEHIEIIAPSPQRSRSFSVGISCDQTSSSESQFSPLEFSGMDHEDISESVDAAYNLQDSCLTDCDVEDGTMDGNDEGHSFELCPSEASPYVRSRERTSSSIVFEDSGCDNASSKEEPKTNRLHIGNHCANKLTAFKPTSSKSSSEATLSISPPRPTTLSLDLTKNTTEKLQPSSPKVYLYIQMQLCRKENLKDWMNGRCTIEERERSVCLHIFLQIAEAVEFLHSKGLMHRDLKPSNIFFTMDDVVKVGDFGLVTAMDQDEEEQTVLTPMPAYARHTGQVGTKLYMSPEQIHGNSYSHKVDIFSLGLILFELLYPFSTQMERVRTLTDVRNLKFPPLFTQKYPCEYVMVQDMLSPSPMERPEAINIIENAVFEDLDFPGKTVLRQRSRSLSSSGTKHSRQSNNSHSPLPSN

[37] = THP-1 cell cytotoxicity, dose response, cytotoxicity control for non-replicating M. tuberculosis project (AID 489025); format: functional
cells = format: functional
[38] = molecular target: T1, Eukaryotic translation initiation factor 2-alpha kinase 3; assay: Counterscreen assay for PERK inhibitors: Dose response cell-based high throughput screening assay to measure inhibition of PERK at 6 hours. [Related pubchem assays: 1522, 1416 ]; format: functional
[39] = loss of A549 viability via ATP – cell-based, plate reader, dry powder, set 7, cytotoxicity control, dose response (AID 743318); format: functional
[40] = toxicity to human hepatoma HepG2 cells – cell-based, cherry-picked samples, cytotoxicity control, dose response (AID 1159577); format: functional

Sequence of Paired box protein Pax-8 (Q06710 whole entry): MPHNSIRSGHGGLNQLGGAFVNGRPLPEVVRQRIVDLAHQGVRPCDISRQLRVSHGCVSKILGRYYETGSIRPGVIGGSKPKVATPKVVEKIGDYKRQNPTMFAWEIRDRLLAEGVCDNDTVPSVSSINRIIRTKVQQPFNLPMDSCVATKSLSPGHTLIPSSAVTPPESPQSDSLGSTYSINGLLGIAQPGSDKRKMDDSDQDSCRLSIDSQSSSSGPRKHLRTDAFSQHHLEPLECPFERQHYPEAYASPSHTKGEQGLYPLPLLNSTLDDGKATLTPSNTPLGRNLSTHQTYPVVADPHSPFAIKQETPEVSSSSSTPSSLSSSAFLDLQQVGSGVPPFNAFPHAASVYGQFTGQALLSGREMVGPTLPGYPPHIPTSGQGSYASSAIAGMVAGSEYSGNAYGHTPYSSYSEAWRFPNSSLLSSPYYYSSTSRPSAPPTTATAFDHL
Sequence of Peroxisome proliferator-activated receptor gamma/Nuclear receptor corepressor 2 (P37231 whole entry): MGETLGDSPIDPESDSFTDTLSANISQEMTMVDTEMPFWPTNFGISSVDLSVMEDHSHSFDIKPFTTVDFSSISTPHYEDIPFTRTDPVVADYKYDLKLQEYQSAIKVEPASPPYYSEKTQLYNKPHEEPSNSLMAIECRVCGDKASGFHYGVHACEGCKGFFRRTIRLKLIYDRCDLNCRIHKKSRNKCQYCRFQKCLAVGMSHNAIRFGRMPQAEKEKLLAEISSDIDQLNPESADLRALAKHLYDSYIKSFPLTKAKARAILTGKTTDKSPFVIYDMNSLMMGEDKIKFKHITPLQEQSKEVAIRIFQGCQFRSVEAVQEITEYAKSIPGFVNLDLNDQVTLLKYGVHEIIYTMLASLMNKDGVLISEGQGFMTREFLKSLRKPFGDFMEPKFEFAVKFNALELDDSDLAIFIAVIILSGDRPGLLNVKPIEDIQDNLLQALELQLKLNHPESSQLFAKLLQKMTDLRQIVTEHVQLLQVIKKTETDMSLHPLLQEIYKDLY
Sequence of Peroxisome proliferator-activated receptor gamma/Nuclear receptor corepressor 2 (Q9Y618 whole entry): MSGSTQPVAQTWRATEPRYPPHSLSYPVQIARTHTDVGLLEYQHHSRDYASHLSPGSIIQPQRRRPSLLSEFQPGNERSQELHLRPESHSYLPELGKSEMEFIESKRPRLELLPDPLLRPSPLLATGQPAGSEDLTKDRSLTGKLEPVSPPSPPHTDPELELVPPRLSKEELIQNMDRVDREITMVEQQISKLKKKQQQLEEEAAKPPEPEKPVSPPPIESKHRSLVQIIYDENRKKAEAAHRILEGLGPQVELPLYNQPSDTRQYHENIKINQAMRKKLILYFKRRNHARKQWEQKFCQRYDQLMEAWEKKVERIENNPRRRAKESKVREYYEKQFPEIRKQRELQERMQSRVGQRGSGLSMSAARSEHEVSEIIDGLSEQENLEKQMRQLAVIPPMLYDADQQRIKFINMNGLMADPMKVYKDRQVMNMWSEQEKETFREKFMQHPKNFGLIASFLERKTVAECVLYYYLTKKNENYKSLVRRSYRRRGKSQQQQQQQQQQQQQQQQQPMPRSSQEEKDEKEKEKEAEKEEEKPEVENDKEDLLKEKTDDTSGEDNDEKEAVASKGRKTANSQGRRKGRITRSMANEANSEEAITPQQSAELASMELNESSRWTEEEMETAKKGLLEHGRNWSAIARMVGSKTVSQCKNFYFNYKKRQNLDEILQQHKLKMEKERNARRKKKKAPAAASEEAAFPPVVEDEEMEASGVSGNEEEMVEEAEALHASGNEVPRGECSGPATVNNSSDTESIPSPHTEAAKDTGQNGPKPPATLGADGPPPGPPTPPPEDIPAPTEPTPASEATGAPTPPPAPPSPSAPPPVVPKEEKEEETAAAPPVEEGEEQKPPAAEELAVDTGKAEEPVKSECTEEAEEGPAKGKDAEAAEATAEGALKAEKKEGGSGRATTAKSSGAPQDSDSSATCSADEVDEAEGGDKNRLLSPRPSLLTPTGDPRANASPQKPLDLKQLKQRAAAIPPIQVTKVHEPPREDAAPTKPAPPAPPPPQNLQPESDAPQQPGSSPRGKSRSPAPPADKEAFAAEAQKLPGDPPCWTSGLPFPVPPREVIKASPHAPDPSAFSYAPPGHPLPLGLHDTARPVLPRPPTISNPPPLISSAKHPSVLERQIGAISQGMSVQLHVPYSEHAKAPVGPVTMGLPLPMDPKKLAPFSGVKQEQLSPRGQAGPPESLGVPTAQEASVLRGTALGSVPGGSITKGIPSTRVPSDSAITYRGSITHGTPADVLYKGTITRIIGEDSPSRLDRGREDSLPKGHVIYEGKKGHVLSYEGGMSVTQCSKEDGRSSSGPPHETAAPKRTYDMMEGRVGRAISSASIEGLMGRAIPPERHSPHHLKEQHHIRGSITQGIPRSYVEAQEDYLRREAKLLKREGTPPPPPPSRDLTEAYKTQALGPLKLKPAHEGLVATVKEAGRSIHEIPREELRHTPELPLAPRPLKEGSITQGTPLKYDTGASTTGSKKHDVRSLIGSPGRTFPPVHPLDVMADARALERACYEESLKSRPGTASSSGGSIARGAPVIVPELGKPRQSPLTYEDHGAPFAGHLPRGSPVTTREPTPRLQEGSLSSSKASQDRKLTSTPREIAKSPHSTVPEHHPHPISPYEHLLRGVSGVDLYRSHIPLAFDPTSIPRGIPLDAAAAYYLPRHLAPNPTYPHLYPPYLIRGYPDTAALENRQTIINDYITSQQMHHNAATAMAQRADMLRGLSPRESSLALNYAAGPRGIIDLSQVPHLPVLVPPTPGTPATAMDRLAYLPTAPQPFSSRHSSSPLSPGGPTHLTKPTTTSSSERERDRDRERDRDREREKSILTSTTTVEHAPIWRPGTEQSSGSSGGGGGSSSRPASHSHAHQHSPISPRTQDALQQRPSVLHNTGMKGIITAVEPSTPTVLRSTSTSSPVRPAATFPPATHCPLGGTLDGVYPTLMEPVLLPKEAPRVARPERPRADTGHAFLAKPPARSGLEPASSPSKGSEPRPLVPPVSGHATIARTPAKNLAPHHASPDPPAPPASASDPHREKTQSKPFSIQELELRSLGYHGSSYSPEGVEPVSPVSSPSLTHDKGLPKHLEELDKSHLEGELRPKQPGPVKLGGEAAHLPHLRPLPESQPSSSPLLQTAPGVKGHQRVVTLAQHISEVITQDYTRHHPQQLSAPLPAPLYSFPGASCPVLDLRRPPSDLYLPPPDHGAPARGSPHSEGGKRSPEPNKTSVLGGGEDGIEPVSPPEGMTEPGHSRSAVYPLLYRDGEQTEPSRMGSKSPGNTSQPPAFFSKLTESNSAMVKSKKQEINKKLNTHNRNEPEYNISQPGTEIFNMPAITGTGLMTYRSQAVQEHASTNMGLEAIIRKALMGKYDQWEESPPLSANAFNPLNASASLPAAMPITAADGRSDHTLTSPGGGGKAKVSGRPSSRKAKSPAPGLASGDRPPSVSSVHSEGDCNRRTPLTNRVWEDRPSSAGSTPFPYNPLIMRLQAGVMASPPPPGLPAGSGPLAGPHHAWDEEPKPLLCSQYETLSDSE
Sequence of Photoreceptor-specific nuclear receptor (Q9Y5X4 whole entry): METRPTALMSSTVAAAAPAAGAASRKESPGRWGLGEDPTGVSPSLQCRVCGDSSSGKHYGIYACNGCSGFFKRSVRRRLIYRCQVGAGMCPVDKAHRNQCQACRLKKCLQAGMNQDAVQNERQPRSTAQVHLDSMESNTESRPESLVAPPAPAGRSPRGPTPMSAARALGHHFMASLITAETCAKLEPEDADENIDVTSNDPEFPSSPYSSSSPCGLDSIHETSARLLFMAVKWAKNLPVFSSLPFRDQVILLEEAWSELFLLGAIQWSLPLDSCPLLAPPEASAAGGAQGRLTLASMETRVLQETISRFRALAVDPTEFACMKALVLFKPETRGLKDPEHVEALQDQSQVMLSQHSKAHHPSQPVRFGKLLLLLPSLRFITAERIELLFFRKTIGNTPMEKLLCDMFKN
Sequence of NADPH oxidase 1 (Q9Y5S8 whole entry): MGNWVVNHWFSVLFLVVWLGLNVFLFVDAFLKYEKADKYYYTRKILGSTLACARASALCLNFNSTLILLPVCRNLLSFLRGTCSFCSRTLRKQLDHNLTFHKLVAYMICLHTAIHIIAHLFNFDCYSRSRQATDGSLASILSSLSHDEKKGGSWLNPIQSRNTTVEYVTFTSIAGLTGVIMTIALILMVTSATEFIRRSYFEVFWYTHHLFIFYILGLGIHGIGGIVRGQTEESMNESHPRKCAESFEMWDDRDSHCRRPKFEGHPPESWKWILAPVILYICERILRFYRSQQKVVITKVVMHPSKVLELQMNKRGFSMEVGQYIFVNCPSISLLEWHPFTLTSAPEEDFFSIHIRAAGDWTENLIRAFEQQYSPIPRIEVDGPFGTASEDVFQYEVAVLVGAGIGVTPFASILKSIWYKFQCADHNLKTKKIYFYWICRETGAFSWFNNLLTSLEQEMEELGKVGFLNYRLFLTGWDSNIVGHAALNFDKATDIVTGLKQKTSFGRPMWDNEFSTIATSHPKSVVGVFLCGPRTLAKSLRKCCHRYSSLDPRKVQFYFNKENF

## CO[C@@H]1CN(C)C(=O)c2ccc(NC(=O)NC(C)C)cc2OC[C@@H](C)N(Cc2ccccc2)C[C@H]1C
[1]
  AC50: > 100 µM (inactive)
[2]
  AC50: 5.13 µM (active)
[3]
  AC50: 1.9 µM (active)
[4]
  AC50: 0.493 µM (active)
[5]
  AC50: 1.78 µM (active)
[6]
  AC50: 0.299 µM (active)
[7]
  AC50: 1.4 µM (active)

## CC(=NNc1ccc(C(=O)O)cc1)c1ccc2c(c1)Nc1ccccc1S2
NADPH oxidase 1
  IC50: 0.561 µM (active)

## Cc1ccc(O)c([C@H](CCN(C(C)C)C(C)C)c2ccccc2)c1 [TOLTERODINE]
[8]
  IC50: > 33.3 µM (inactive)

## O=C(NCc1ccccn1)c1cccn1-c1ncc(C(F)(F)F)cc1Cl
[9]
  IC50: 9.96 µM (active)
[10]
  IC50: 9.98 µM (active)

## CCN(CC)c1ccc2c(cc1=O)[C@@H](NC)CCc1cc(OC)c(OC)c(OC)c1-2
[11]
  EC50: 0.953 µM (active)
[12]
  AC50: 7.15 µM (active)
BJ [13]
  EC50: 1.36 µM (inconclusive)
[14]
  AC50: 6.57 µM (active)
[15]
  EC50: 0.35 µM (active)
[16]
  EC50: 0.684 µM (active)
[17]
  AC50: 11.7 µM (active)
[18]
  AC50: 1.63 µM (active)
BJ [19]
  EC50: 1.07 µM (inconclusive)
[20]
  IC50: 1.49 µM (active)
[21]
  AC50: 5.6 µM (active)
[22]
  AC50: 2.73 µM (active)
Paired box protein Pax-8
  AC50: 2.9 µM (active)
[23]
  AC50: 2.89 µM (active)
[24]
  AC50: 6.61 µM (active)
[25]
  AC50: 5.95 µM (active)
BJ [26]
  EC50: 0.343 µM (active)
[27]
  AC50: 3.45 µM (active)
BJ [28]
  EC50: 1.62 µM (active)
[29]
  EC50: 1.03 µM (active)
[30]
  AC50: 3.39 µM (active)

## COc1cccc2c1C(CO)N1C(C#N)C3CC(C(=O)O)C(C1C2)N3C (stereo not drawn)
[31]
  AC50: 20.1 µM (active)
[32]
  IC50: > 80 µM (inactive)
[33]
  CC50: 0.194 µM (active)
P388
  GI50: 0.416 µM (active)
[34]
  CC50: 0.925 µM (active)
[35]
  CC50: 0.33 µM (active)
P388/ADR
  GI50: < 0.0384 µM (active)
SN12K1
  GI50: 0.243 µM (active)
Jurkat
  IC50: 0.34 µM (active)
[36]
  EC50: > 55.7 µM (not active)
[37]
  CC50: 0.153 µM (active)
cells
  IC50: 2.76 µM (active)
[38]
  EC50: > 55.7 µM (not active)

## Cc1cccc(OCCn2c(=S)[nH]c3cc(C(F)(F)F)ccc32)c1
[39]
  AC50: 36 µM (active)

## O=C(Nc1ccc2c(c1)OCO2)N1C[C@@H]2N[C@H](C1)[C@@H]2c1ccc(C=Cc2ccccc2)cc1
[40]
  AC50: 11.2 µM (active)
[5]
  AC50: 5.46 µM (active)
